Assay in all cases: growth of human tumour cells (NCI), 48 h
The subject of experiment [1] is NCI-H522 lung.
Experiment [2] relates to SNB-19 CNS.
The test system of experiment [3] is MALME-3M melanoma.
In experiment [4] the test system is K-562 leukemia.
For experiment [5], the system named is 786-0 renal.
Experiment [6] has as its system UO-31 renal.
Experiment [7] relates to MCF7 breast.
The test system of experiment [8] is CCRF-CEM leukemia.
Experiment [9] deals with HL-60(TB) leukemia.
The test system of experiment [10] is NCI/ADR-RES ovarian.

This passage reports TGI and GI50 results from PubChem BioAssay (NCI).

Each structure is given as a SMILES string.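 These data come from cells grown in 96-well plates and exposed to compound for 48 hours at five concentrations. Abbreviation: GI50, concentration required for 50% inhibition of growth. Definition used: TGI = concentration required for complete inhibition of growth.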

On to `CC(=O)OCc1nnn2c1C(OC(C)=O)CC2` (stereo not drawn), for which the TGI in experiment [1], in experiment [2], in experiment [3], in experiment [4], in experiment [5] and in [6] was greater than 100 µM each time.

As for `CC1(C)CC[C@]23CC[C@]4(C)[C@H](CC[C@@H]5[C@@]6(C)CCCNC(C)(C)[C@@H]6CC[C@]54C)[C@H]2[C@H]1OC3`, the GI50 in experiment [1] is 1.9 µM; in [7], 1.44 µM; in [2], 1.85 µM; in experiment [3], 1.79 µM; in experiment [8] it was 2.32 µM; in experiment [4], 1.96 µM. In addition, the GI50 in experiment [5] is 1.66 µM; in experiment [6], 1.56 µM. Moreover, the TGI in experiment [1] came out at 3.77 µM; in [7] it was 3.01 µM; in experiment [2], 3.35 µM; in experiment [3], 3.47 µM; in experiment [8], 6.73 µM; in experiment [4] it was 7 µM. For the same compound, the TGI in experiment [5] came to 3.21 µM; in [6], 3 µM.

With `O=C(O)C1=Cc2cccc3cccc(c23)C1=O`, the TGI in experiment [1], in [2], in [3], in [8], in [9] and in experiment [4] was greater than 100 µM in each case. The TGI in experiment [5] and in experiment [6] was greater than 100 µM each time.

On to `CCCCCc1cc(/C=C2/N=C(c3ccc[nH]3)C=C2OC)[nH]c1C`, for which the TGI in [1] was determined as 0.209 µM; in experiment [7], 0.0988 µM; in [2], 1.5 µM; in experiment [10], 1.14 µM; in [3] it was 0.275 µM; in experiment [8] it was 0.209 µM. For the same compound, the results for the TGI in experiment [4], in experiment [5] and in experiment [6] were 0.259 µM, less than 0.0459 µM and less than 0.0193 µM, respectively.

For `O=C1CCc2cc(Br)ccc2O1`, the TGI in [1], in [7], in experiment [2], in [3], in experiment [8] and in [9] was greater than 100 µM throughout. In addition, the TGI in experiment [4] and in experiment [5] was greater than 100 µM each time.

Take `CCOC(=O)CCc1c(C)c2c(OC)cc(OC)cc2oc1=O`: the TGI in experiment [1], in experiment [2], in experiment [3], in [9], in experiment [5] and in experiment [6] was greater than 100 µM each time.

Consider `O=C(Cc1cc(O)ccc1O)NO`, for which the GI50 in experiment [1] was 91.7 µM; in [7] it was 16.5 µM; in [2], 31.2 µM; in experiment [10], greater than 100 µM; in experiment [3], 29.1 µM; in experiment [8] it was 22.3 µM. Further, the GI50 is 21.2 µM in experiment [4], 18.9 µM in experiment [5] and greater than 100 µM in experiment [6]. In addition, the TGI in [1] was greater than 100 µM; in experiment [7] it was 34.9 µM; in experiment [2], greater than 100 µM; in experiment [10], greater than 100 µM; in [3], greater than 100 µM; in experiment [8], 48.6 µM. Also, the TGI was 45.8 µM in [4], 34.5 µM in [5] and greater than 100 µM in [6].

On to `Cc1ccc2ncnc(N(C)C3CCCCC3)c2c1`, for which the GI50 was 39 µM in [1]; 41.3 µM in experiment [7]; 59.5 µM in experiment [2]; 19.1 µM in [10]; 56 µM in [3]; 34.7 µM in experiment [8]. The results for the GI50 in experiment [4], in [5] and in experiment [6] were 13.5 µM, 32.3 µM and 24.5 µM, respectively. For the same compound, the TGI was greater than 100 µM in experiment [1]; greater than 100 µM in [7]; greater than 100 µM in experiment [2]; 53 µM in experiment [10]; greater than 100 µM in [3]; greater than 100 µM in experiment [8]. Further, the TGI in experiment [4] was 94.4 µM; in [5] it was greater than 100 µM; in [6], greater than 100 µM.

Turning to `CC[O-].CC[O-].O=C1C=C([O-])C(=O)c2ccccc21.O=C1C=C([O-])C(=O)c2ccccc21.[Ti+4]`, the GI50 was greater than 40.1 µM in [1]; greater than 84.5 µM in [2]; 9.89 µM in experiment [3]; greater than 100 µM in experiment [8]; 7.22 µM in experiment [9]; 69.6 µM in experiment [4]. Also, the GI50 is greater than 100 µM in [5] and greater than 86.1 µM in [6]. For the same compound, the TGI in [1], in experiment [2], in experiment [3], in experiment [8], in experiment [9] and in experiment [4] was greater than 100 µM throughout. Also, the TGI in experiment [5] and in experiment [6] was greater than 100 µM each time.

On to `Cc1[nH]c(=O)n2c(C)nnc2c1C(=O)O`, for which the TGI in experiment [1], in [3], in experiment [8], in [9], in experiment [4] and in experiment [5] was greater than 100 µM in each case. In [6], the TGI was greater than 100 µM.

Take `CCN1CCN(Cc2ccc(NC(=O)Nc3nc(-c4cc(OC)c(OC)c(OC)c4)cs3)cc2C(F)(F)F)CC1`: the GI50 in experiment [1] is 1.65 µM; in experiment [7] it was 1.44 µM; in [2], 1.75 µM; in [8], 1.87 µM; in [9], 1.94 µM; in experiment [4] it was 0.42 µM. Besides, the values for the GI50 in [5] and in experiment [6] were 1.66 µM and 1.36 µM, respectively. Besides, the TGI in [1] was 3.13 µM; in experiment [7], 3.02 µM; in [2] it was 3.43 µM; in experiment [8] it was 6.07 µM; in experiment [9] it was 4.25 µM; in experiment [4], 1.92 µM. Also, the values for the TGI in [5] and in [6] were 3.15 µM and 3.78 µM, respectively.

In the case of `Cc1ccc(NC(=S)NNC(=S)Nc2ccc(C)cc2)cc1`, the GI50 in [1] was 2.03 µM; in experiment [7], 3.75 µM; in experiment [2], 8.36 µM; in experiment [10], 2.55 µM; in experiment [3], 7.07 µM; in experiment [5], 51.3 µM. Further, in experiment [6], the GI50 is 11.6 µM. Also, the TGI in experiment [1] is 5.83 µM; in [7], greater than 100 µM; in [2], greater than 100 µM; in experiment [10], 8.52 µM; in experiment [3] it was greater than 100 µM; in experiment [5], greater than 100 µM. Besides, the TGI in [6] is greater than 100 µM.

With `OC1(C(Sc2ccccc2)Sc2ccccc2)CCCCCC1`, the TGI in experiment [1] came to 40.7 µM; in experiment [2], 77.4 µM; in experiment [8] it was 77.3 µM; in experiment [9], 50.8 µM; in [5], 64.9 µM; in experiment [6] it was 16.6 µM.

With `COc1ccc(N=Nc2ccc(O)c(=O)cc2)cc1`, the GI50 in experiment [1] was 2.88 µM; in experiment [7], 3.4 µM; in experiment [2] it was 2.92 µM; in experiment [3] it was 2.86 µM; in experiment [8] it was 2.18 µM; in experiment [9] it was 3.55 µM. In addition, the values for the GI50 in experiment [4], in experiment [5] and in [6] were 3.69 µM, 3.07 µM and 2.91 µM, respectively. The TGI in experiment [1] was 13.4 µM; in experiment [7] it was greater than 100 µM; in experiment [2], 51.6 µM; in experiment [3], 14.2 µM; in [8], 9.94 µM; in experiment [9], greater than 100 µM. The TGI in experiment [4], in experiment [5] and in [6] was greater than 100 µM in each case.

On to `N#CC1=C(N)N=C(N2CCOCC2)C(C#N)C12Nc1ccccc1S2` (stereo not drawn), for which the GI50 in experiment [1] is 17.6 µM; in [2], 33.8 µM; in experiment [10] it was 39.3 µM; in experiment [9], 51 µM; in experiment [4], 26.7 µM; in experiment [5], 29.6 µM. For the same compound, in [6], the GI50 is 16.4 µM. Besides, the TGI is 51.5 µM in [1]; greater than 100 µM in experiment [2]; 75.9 µM in [10]; greater than 100 µM in [9]; greater than 100 µM in [4]; 76.2 µM in [5]. In experiment [6], this compound registered a TGI of 61.4 µM.

`CCCCCCCCCN=C(N)c1ccc(N2CCN(c3ccc(C(N)=NCCCCCCCCC)cc3)CC2)cc1`: the GI50 in experiment [1] was 2.36 µM; in experiment [7], 0.704 µM; in experiment [2] it was 2.29 µM; in experiment [10], 3.56 µM; in experiment [3], 1.37 µM; in [8], 1.77 µM. Further, the values for the GI50 in experiment [4], in [5] and in experiment [6] were 1.72 µM, 3.4 µM and 3.5 µM, respectively. Moreover, the TGI was 21.4 µM in [1]; 1.54 µM in [7]; 15.8 µM in experiment [2]; greater than 50 µM in [10]; 3.74 µM in [3]; 8.34 µM in [8]. Moreover, the TGI was 17 µM in experiment [4], greater than 50 µM in [5] and greater than 50 µM in experiment [6].

As to `COC(=O)C1C(C(=O)O)C2(c3ccccc3)C(=O)C1(c1ccccc1)C(c1ccc(OC)cc1)=C2c1ccc(OC)cc1` (stereo not drawn), the GI50 in [1] is 17 µM; in experiment [7], 20.3 µM; in [2], 22.4 µM; in [10], 20.6 µM; in experiment [3] it was 29.8 µM; in experiment [8], 13.2 µM. Further, the GI50 is 28.4 µM in experiment [4], 18.6 µM in experiment [5] and 25.8 µM in experiment [6]. Besides, the TGI in experiment [1] worked out at 41.9 µM; in experiment [7], 38.9 µM; in [2] it was 77.3 µM; in experiment [10] it was 43.6 µM; in [3], 75.7 µM; in [8], 38.5 µM. Also, the TGI in experiment [4] was greater than 100 µM; in [5] it was 40.4 µM; in [6], 75 µM.

As to `COC(=O)c1cc(O)ccc1O`, the TGI in [1], in [2], in [3], in [8], in experiment [9] and in experiment [4] was greater than 100 µM throughout. Moreover, the TGI in [5] and in [6] was greater than 100 µM in each case.

`O=C(CCN1CCCCC1)c1csc2ccccc12`: the TGI in experiment [1] was greater than 100 µM; in experiment [7], 48.1 µM; in experiment [2], greater than 100 µM; in experiment [10], greater than 100 µM; in experiment [3], greater than 100 µM; in experiment [4], greater than 100 µM. Further, the TGI in experiment [5] and in experiment [6] was greater than 100 µM each time.

With `CC(=O)OC(C(=O)[O][Ge]([CH3])([CH3])[CH3])c1ccccc1` (stereo not drawn), the GI50 in experiment [1], in experiment [2], in experiment [3], in [4], in experiment [5] and in [6] was greater than 100 µM each time. The TGI in experiment [1], in [2], in [3], in [9], in experiment [4] and in [5] was greater than 100 µM in each case. The TGI in experiment [6] was greater than 100 µM.

As for `CC(=O)Oc1ccc2c(=O)c(C(C)=O)coc2c1`, the TGI in [1], in experiment [2], in [8], in [9], in experiment [4] and in experiment [5] was greater than 100 µM each time. Also, in experiment [6], the TGI is greater than 100 µM.

For `CCOC(=O)C(C(=O)OCC)=C1C=C(c2ccccc2)c2ccccc21`, the TGI in [2] was greater than 100 µM; in experiment [3], greater than 100 µM; in [8], greater than 100 µM; in experiment [9] it was 92 µM; in experiment [4], greater than 100 µM; in experiment [5], greater than 100 µM. Besides, the TGI in [6] was greater than 100 µM.

Turning to `CCCCCOC(=O)Nc1nc(=O)n(C2OC(C)C(O)C2O)cc1F` (stereo not drawn), the GI50 in [1] is greater than 10000 µM; in [2], greater than 10000 µM; in experiment [10], greater than 10000 µM; in experiment [8] it was greater than 10000 µM; in experiment [9] it was 5070 µM; in experiment [5], greater than 10000 µM. Moreover, in [6], the GI50 was greater than 10000 µM. Moreover, the TGI in experiment [1], in experiment [2], in experiment [10], in experiment [8], in experiment [9] and in experiment [5] was greater than 10000 µM in each case. In experiment [6], this compound returned a TGI greater than 10000 µM.
